In brackets after ≈: the same amount, converted by molar mass. Each block holds one compound with its values, some of them ahead of it. Where a SMILES comes first, the peptide text is derived from it. Bridges are numbered along the chain shown (N, C = ends). [ ]: non-standard residue; d: D form. d(aIle) = CC[C@H](C)[C@@H](N)C(=O)O; dNMeF = CN[C@H](Cc1ccccc1)C(=O)O
How the values were obtained:
Format in all cases: functional
Bacillus subtilis [1] = experiment: Antibacterial activity against Bacillus subtilis 168 incubated for 24 hrs
Staphylococcus aureus [2] = experiment: Antibacterial activity against methicillin resistant Staphylococcus aureus ATCC 33591 incubated for 24 hrs
Staphylococcus aureus [3] = experiment: Antibacterial activity against methicillin resistant Staphylococcus aureus
Staphylococcus aureus [4] = experiment: Antibacterial activity against Staphylococcus aureus ATCC 29213
Bacillus subtilis [5] = experiment: Antibacterial activity against Bacillus subtilis ATCC 6051 incubated for 16 hrs by UV/Visible absorbance method
Staphylococcus aureus [6] = experiment: Antibacterial activity against Staphylococcus aureus ATCC 29213 incubated for 16 hrs by UV/Visible absorbance method
Staphylococcus aureus [7] = experiment: Antibacterial activity against Staphylococcus aureus ATCC 29213 by CLSI-based broth microdilution method
Staphylococcus aureus [8] = experiment: Antibacterial activity against Staphylococcus aureus ATCC 29213 incubated for 24 hrs by CLSI-based broth microdilution method

Structure (SMILES): CC[C@H](C)[C@H](NC(=O)[C@@H](Cc1ccccc1)NC)C(=O)N[C@@H](CO)C(=O)N[C@H](CCC(N)=O)C(=O)N[C@@H](C(=O)N[C@H](C(=O)N[C@@H](CO)C(=O)N[C@H]1C(=O)N[C@@H](C)C(=O)N[C@@H](CCCN)C(=O)N[C@@H]([C@@H](C)CC)C(=O)O[C@H]1C)[C@@H](C)CC)[C@@H](C)CC
MIC (Bacillus subtilis [1]): 0.25 mg/L (≈ 0.208 µM)
MIC (Staphylococcus aureus [2]): 2 mg/L (≈ 1.66 µM)

Structure (SMILES): CC[C@H](C)[C@H](NC(=O)[C@@H](Cc1ccccc1)NC)C(=O)N[C@@H](C)C(=O)N[C@H](CCC(N)=O)C(=O)N[C@@H](C(=O)N[C@H](C(=O)N[C@@H](CO)C(=O)N[C@H]1C(=O)N[C@@H](C)C(=O)N[C@@H](CCCCN)C(=O)N[C@@H]([C@@H](C)CC)C(=O)O[C@H]1C)[C@@H](C)CC)[C@@H](C)CC
MIC (Staphylococcus aureus [3]): 1 mg/L (≈ 0.833 µM)
MIC (Staphylococcus aureus [4]): 0.5 mg/L (≈ 0.416 µM)

Structure (SMILES): CC[C@H](C)[C@H](NC(=O)[C@@H](Cc1ccccc1)NC)C(=O)N[C@@H](CO)C(=O)N[C@H](CCC(N)=O)C(=O)N[C@@H](C(=O)N[C@H](C(=O)N[C@@H](CO)C(=O)N[C@H]1C(=O)N[C@@H](C)C(=O)N[C@@H](CCCCNC(=N)N)C(=O)N[C@@H]([C@@H](C)CC)C(=O)O[C@H]1C)[C@@H](C)CC)[C@@H](C)CC
MIC (Bacillus subtilis [1]): 0.125 mg/L (≈ 0.0993 µM)
MIC (Staphylococcus aureus [2]): 1 mg/L (≈ 0.795 µM)

MIC (Bacillus subtilis [5]): 1 mg/L (≈ 0.768 µM)
MIC (Staphylococcus aureus [4]): 6 mg/L (≈ 4.61 µM)
Structure (SMILES): CC[C@H](C)[C@H](NC(=O)[C@@H](Cc1ccccc1)NC)C(=O)N[C@@H](CO)C(=O)N[C@H](CCC(N)=O)C(=O)N[C@@H](C(=O)N[C@H](C(=O)N[C@@H](CO)C(=O)N[C@H]1C(=O)N[C@@H](CCCCN)C(=O)N[C@@H](CCCNC(=N)N)C(=O)N[C@@H]([C@@H](C)CC)C(=O)O[C@H]1C)[C@@H](C)CC)[C@@H](C)CC

Structure (SMILES): CC[C@H](C)[C@H](NC(=O)[C@@H](Cc1ccccc1)NC)C(=O)N[C@@H](CO)C(=O)N[C@H](CCC(N)=O)C(=O)N[C@@H](C(=O)N[C@H](C(=O)N[C@@H](CO)C(=O)N[C@H]1C(=O)N[C@@H](C)C(=O)N[C@@H](CCN)C(=O)N[C@@H]([C@@H](C)CC)C(=O)O[C@H]1C)[C@@H](C)CC)[C@@H](C)CC
MIC (Bacillus subtilis [1]): 1 mg/L (≈ 0.841 µM)
MIC (Staphylococcus aureus [2]): 2 mg/L (≈ 1.68 µM)

MIC (Bacillus subtilis [5]): 4 mg/L (≈ 3.5 µM)
MIC (Staphylococcus aureus [6]): 1 mg/L (≈ 0.875 µM)
Structure (SMILES): CC[C@H](C)[C@H](NC(=O)[C@@H](Cc1ccccc1)NC)C(=O)N[C@@H](CO)C(=O)N[C@H](C)C(=O)N[C@@H](C(=O)N[C@H](C(=O)N[C@@H](C)C(=O)N[C@H]1C(=O)N[C@@H](C)C(=O)N[C@@H](CCCCN)C(=O)N[C@@H]([C@@H](C)CC)C(=O)O[C@H]1C)[C@@H](C)CC)[C@@H](C)CC

Structure (SMILES): CC[C@H](C)[C@H](NC(=O)[C@@H](Cc1ccccc1)NC)C(=O)N[C@@H](CO)C(=O)N[C@H](CCC(N)=O)C(=O)N[C@@H](C(=O)N[C@H](C(=O)N[C@@H](CO)C(=O)N[C@H]1C(=O)N[C@@H](C)C(=O)N[C@@H](CCCCN)C(=O)N[C@@H]([C@@H](C)CC)C(=O)O[C@H]1C)[C@@H](C)CC)[C@@H](C)CC
MIC (Bacillus subtilis [1]): 0.25 mg/L (≈ 0.206 µM)
MIC (Staphylococcus aureus [2]): 1 mg/L (≈ 0.822 µM)

MIC (Bacillus subtilis [5]): 2 mg/L (≈ 1.69 µM)
MIC (Staphylococcus aureus [6]): 2 mg/L (≈ 1.69 µM)
Structure (SMILES): CC[C@H](C)[C@H](NC(=O)[C@@H](Cc1ccccc1)NC)C(=O)N[C@@H](CO)C(=O)N[C@H](CCCCN)C(=O)N[C@@H](C(=O)N[C@H](C(=O)N[C@@H](C)C(=O)N[C@H]1C(=O)N[C@@H](C)C(=O)NC(CCCN)C(=O)N[C@@H]([C@@H](C)CC)C(=O)O[C@H]1C)[C@@H](C)CC)[C@@H](C)CC (stereo partly specified)

Structure (SMILES): CC[C@H](C)[C@H](NC(=O)[C@@H](Cc1ccccc1)NC)C(=O)N[C@@H](CO)C(=O)N[C@H](CCC(N)=O)C(=O)N[C@@H](C(=O)N[C@H](C(=O)N[C@@H](CO)C(=O)N[C@H]1C(=O)N[C@@H](C)C(=O)NC(CN)C(=O)N[C@@H]([C@@H](C)CC)C(=O)O[C@H]1C)[C@@H](C)CC)[C@@H](C)CC (stereo partly specified)
MIC (Bacillus subtilis [1]): 0.5 mg/L (≈ 0.426 µM)
MIC (Staphylococcus aureus [2]): 4 mg/L (≈ 3.41 µM)

Structure (SMILES): CC[C@H](C)[C@H](NC(=O)[C@@H](Cc1ccccc1)NC)C(=O)N[C@@H](CO)C(=O)N[C@H](CCC(N)=O)C(=O)N[C@@H](C(=O)N[C@H](C(=O)N[C@@H](CO)C(=O)N[C@H]1C(=O)N[C@@H](C)C(=O)N[C@@H](CNC(=N)N)C(=O)N[C@@H]([C@@H](C)CC)C(=O)O[C@H]1C)[C@@H](C)CC)[C@@H](C)CC
MIC (Bacillus subtilis [1]): 1 mg/L (≈ 0.822 µM)
MIC (Staphylococcus aureus [2]): 4 mg/L (≈ 3.29 µM)

Structure (SMILES): CC[C@H](C)[C@H](NC(=O)[C@@H](Cc1ccccc1)NC)C(=O)N[C@@H](CO)C(=O)N[C@H](CCC(N)=O)C(=O)N[C@@H](C(=O)N[C@H](C(=O)N[C@@H](C)C(=O)N[C@H]1C(=O)N[C@@H](C)C(=O)N[C@@H](CCCCN)C(=O)N[C@@H]([C@@H](C)CC)C(=O)O[C@H]1C)[C@@H](C)CC)[C@@H](C)CC
MIC (Staphylococcus aureus [3]): 32 mg/L (≈ 26.7 µM)
MIC (Staphylococcus aureus [4]): 32 mg/L (≈ 26.7 µM)

MIC (Staphylococcus aureus [7]): 32 mg/L (≈ 25.4 µM)
Structure (SMILES): CC[C@H](C)[C@H](NC(=O)[C@H](NC(=O)[C@@H](CCC(N)=O)NC(=O)[C@H](CO)NC(=O)[C@@H](NC(=O)[C@H](Cc1ccccc1)N(C)C)[C@@H](C)CC)[C@@H](C)CC)C(=O)N[C@@H](CO)C(=O)N[C@H]1C(=O)N[C@@H](C)C(=O)N[C@@H](CCCNC(=N)N)C(=O)N[C@@H]([C@@H](C)CC)C(=O)O[C@H]1C

Structure (SMILES): CC[C@H](C)[C@H](NC(=O)[C@H](Cc1ccccc1)NC)C(=O)N[C@@H](CO)C(=O)N[C@H](CCC(N)=O)C(=O)N[C@@H](C(=O)N[C@H](C(=O)N[C@@H](CO)C(=O)N[C@H]1C(=O)N[C@@H](C)C(=O)N[C@@H](CCCNC(=N)N)C(=O)N[C@@H]([C@@H](C)CC)C(=O)O[C@H]1C)[C@@H](C)CC)[C@@H](C)CC
MIC (Staphylococcus aureus [8]): 2 mg/L (≈ 1.61 µM)

MIC (Staphylococcus aureus [8]): 2 mg/L (≈ 1.63 µM)
Structure (SMILES): CC[C@H](C)[C@H](NC(=O)[C@@H](N)Cc1ccccc1)C(=O)N[C@@H](CO)C(=O)N[C@H](CCC(N)=O)C(=O)N[C@@H](C(=O)N[C@H](C(=O)N[C@@H](CO)C(=O)N[C@H]1C(=O)N[C@@H](C)C(=O)N[C@@H](CCCNC(=N)N)C(=O)N[C@@H]([C@@H](C)CC)C(=O)O[C@H]1C)[C@@H](C)CC)[C@@H](C)CC

MIC (Staphylococcus aureus [8]): 8 mg/L (≈ 5.99 µM)
Structure (SMILES): CC[C@H](C)[C@H](NC(=O)[C@@H](Cc1ccccc1)NC(=O)c1ccccc1)C(=O)N[C@@H](CO)C(=O)N[C@H](CCC(N)=O)C(=O)N[C@@H](C(=O)N[C@H](C(=O)N[C@@H](CO)C(=O)N[C@H]1C(=O)N[C@@H](C)C(=O)N[C@@H](CCCNC(=N)N)C(=O)N[C@@H]([C@@H](C)CC)C(=O)O[C@H]1C)[C@@H](C)CC)[C@@H](C)CC

Structure (SMILES): CC[C@H](C)[C@H](NC(=O)[C@@H](Cc1ccccc1)NC)C(=O)N[C@@H](CO)C(=O)N[C@H](CCC(N)=O)C(=O)N[C@@H](C(=O)N[C@H](C(=O)N[C@@H](CO)C(=O)N[C@H]1C(=O)N[C@@H](C)C(=O)N[C@@H](CCNC(=N)N)C(=O)N[C@@H]([C@@H](C)CC)C(=O)O[C@H]1C)[C@@H](C)CC)[C@@H](C)CC
MIC (Bacillus subtilis [1]): 0.5 mg/L (≈ 0.406 µM)
MIC (Staphylococcus aureus [2]): 1 mg/L (≈ 0.813 µM)

MIC (Staphylococcus aureus [8]): 16 mg/L (≈ 12.7 µM)
Structure (SMILES): CC[C@H](C)[C@H](NC(=O)[C@@H](Cc1ccccc1)N(C)C)C(=O)N[C@@H](CO)C(=O)N[C@H](CCC(N)=O)C(=O)N[C@@H](C(=O)N[C@H](C(=O)N[C@@H](CO)C(=O)N[C@H]1C(=O)N[C@@H](C)C(=O)N[C@@H](CCCNC(=N)N)C(=O)N[C@@H]([C@@H](C)CC)C(=O)O[C@H]1C)[C@@H](C)CC)[C@@H](C)CC

MIC (Bacillus subtilis [5]): 8 mg/L (≈ 6.81 µM)
MIC (Staphylococcus aureus [6]): 4 mg/L (≈ 3.41 µM)
Structure (SMILES): CC[C@H](C)[C@H](NC(=O)[C@@H](Cc1ccccc1)NC)C(=O)N[C@@H](CO)C(=O)N[C@H](CCC(N)=O)C(=O)N[C@@H](C(=O)N[C@H](C(=O)N[C@@H](CO)C(=O)N[C@H]1C(=O)N[C@@H](C)C(=O)N[C@@H](CCCCN)C(=O)N[C@@H](C)C(=O)O[C@H]1C)[C@@H](C)CC)[C@@H](C)CC (H-[dNMeF]IS[dQ][d(aIle)]IS[dT]AKA; ester 8-C)

— ChEMBL document CHEMBL4680273, “Teixobactin: A Paving Stone toward a New Class of Antibiotics?” (2020)
